Assay [1] deals with blood glucose. As to the kind of experiment: Blood-glucose depression assay modified from the U.S. Pharmacopeia. Type of assay: in vivo. As to conditions: 60 minutes after injection; for Blood glucose depression: 0.1 mg protein/100 gm body weight subcutaneous after overnight fast. The source says: weight by subcutaneous injection.
injection using a Beckman Glucose Analyzer 2.

Assay [2] deals with Concanavalin A (Canavalia ensiformis, UniProt P02866). As to the kind of experiment: Binding to and glucose displacement from immobilized Concanavalin A columns. Further details: species or system Jack Bean. As to the method:
At the point indicated by the arrow, 0.2M glucose in the column buffer was begun. Fractions (2.0 ml) were collected at a flow rate of 10-15 ml/h.
Displacement of hormone was accomplished using 1.0 ml pulses of column buffer containing varying amounts of glucose. Glucose content is indicated over the appropriate arrows. Fractions (1.7 ml) were collected at a flow rate of 10-15 ml/h.

For the substance “Control insulin: porcine insulin (Lilly), unmodified”, the Blood glucose depression in assay [1] (Animal A) was 75 mg %; in assay [1] (Animal B) it was 70 mg %; in assay [1] (Animal C), 79 mg %; in assay [1] (Animal D), 79 mg %; in assay [1] (Animal E) it was 64 mg %; in assay [1] (Animal F), 73 mg %. Further, the “Blood glucose depression, Mean ± S.E.M.” value in assay [1] (Mean of animals A-F, 0.1 mg protein/100 gm body weight subcutaneous) is on record as 73.33 ± 2.35 mg %. Moreover, the “Binding to immobilized Concanavalin A” value in assay [2] (20 mg applied to column, buffer 1 mM MgCl2, 1 mM CaCl2, 50 mM NaCl, 25 mM sodium phosphate, pH 7.4) is “did not bind”. In addition, the “Displacement from Concanavalin A binding sites by glucose” value in assay [2] (0.2M glucose in column buffer, 1,000:1 molar excess of glucose) is “none was eluted by the addition of glucose”.
